Experimental data published in the NIST ThermoML archive (doi:10.1016/j.jct.2013.05.024).

Assay: excess molar enthalpy (molar enthalpy of mixing); xn = mol fraction of the nth substance listed
Conditions: 101.3 kPa, Liquid, Isoperibol calorimetry

CCOC(=O)C(=O)OCC [diethyl ethanedioate] + CC(C)O
excess molar enthalpy [kJ/mol]
Conditions | 288.2 K | 298.2 K | 313.2 K | 328.2 K
x1 = 0.0492 | 0.519 | 0.548 | 0.585 | 0.605
x1 = 0.0997 | 0.943 | 1.03 | 1.12 | 1.2
x1 = 0.1514 | 1.265 | 1.389 | 1.526 | 1.633
x1 = 0.2009 | 1.492 | 1.647 | 1.831 | 1.949
x1 = 0.2507 | 1.712 | 1.9 | 2.094 | 2.246
x1 = 0.3005 | 1.832 | 2.03 | 2.257 | 2.402
x1 = 0.3499 | 1.959 | 2.163 | 2.392 | 2.549
x1 = 0.3987 | 2.024 | 2.236 | 2.467 | 2.657
x1 = 0.4504 | 2.076 | 2.285 | 2.532 | 2.685
x1 = 0.501 | 2.082 | 2.279 | 2.524 | 2.68
x1 = 0.55 | 2.09 | 2.277 | 2.486 | 2.643
x1 = 0.6018 | 2.04 | 2.211 | 2.415 | 2.563
x1 = 0.6515 | 1.965 | 2.122 | 2.295 | 2.416
x1 = 0.6985 | 1.849 | 1.993 | 2.152 | 2.253
x1 = 0.7478 | 1.693 | 1.807 | 1.955 | 2.028
x1 = 0.7996 | 1.481 | 1.574 | 1.667 | 1.743
x1 = 0.8479 | 1.228 | 1.29 | 1.372 | 1.404
x1 = 0.8985 | 0.908 | 0.932 | 0.995 | 0.982
x1 = 0.9515 | 0.493 | 0.468 | 0.479 | 0.505

CCOC(=O)C(=O)OCC [diethyl ethanedioate] + CO
excess molar enthalpy [kJ/mol]
Conditions | 288.2 K | 298.2 K | 313.2 K | 328.2 K
x1 = 0.0493 | – | 0.219 | 0.251 | 0.282
x1 = 0.0494 | 0.194 | – | – | –
x1 = 0.1004 | – | 0.424 | 0.502 | 0.58
x1 = 0.1005 | 0.371 | – | – | –
x1 = 0.1593 | – | 0.626 | 0.738 | 0.854
x1 = 0.2003 | – | 0.741 | 0.877 | 1.007
x1 = 0.2004 | 0.651 | – | – | –
x1 = 0.2505 | – | 0.866 | 1.012 | 1.167
x1 = 0.2507 | 0.772 | – | – | –
x1 = 0.299 | – | 0.972 | 1.14 | 1.308
x1 = 0.2991 | 0.867 | – | – | –
x1 = 0.3509 | – | 1.065 | 1.246 | 1.425
x1 = 0.3511 | 0.945 | – | – | –
x1 = 0.4017 | – | 1.132 | 1.322 | 1.513
x1 = 0.4019 | 1.012 | – | – | –
x1 = 0.4494 | – | 1.181 | 1.374 | 1.561
x1 = 0.4496 | 1.055 | – | – | –
x1 = 0.4973 | – | 1.217 | 1.417 | 1.608
x1 = 0.4975 | 1.092 | – | – | –
x1 = 0.5507 | – | 1.231 | 1.422 | 1.608
x1 = 0.5509 | 1.112 | – | – | –
x1 = 0.5967 | – | 1.228 | 1.413 | 1.589
x1 = 0.5969 | 1.109 | – | – | –
x1 = 0.6473 | – | 1.195 | 1.37 | 1.52
x1 = 0.6475 | 1.09 | – | – | –
x1 = 0.7032 | – | 1.127 | 1.302 | 1.418
x1 = 0.7033 | 1.032 | – | – | –
x1 = 0.7468 | – | 1.083 | 1.218 | 1.299
x1 = 0.7469 | 0.976 | – | – | –
x1 = 0.8037 | – | 0.996 | 1.085 | 1.105
x1 = 0.8039 | 0.867 | – | – | –
x1 = 0.8449 | – | 0.873 | 0.956 | 0.927
x1 = 0.845 | 0.754 | – | – | –
x1 = 0.9004 | – | 0.638 | 0.651 | 0.617
x1 = 0.9005 | 0.531 | – | – | –
x1 = 0.9484 | 0.283 | 0.371 | 0.395 | 0.353

CCOC(=O)C(=O)OCC [diethyl ethanedioate] + CCO
excess molar enthalpy [kJ/mol]
Conditions | 288.2 K | 298.2 K | 313.2 K | 328.2 K
x1 = 0.0495 | 0.292 | 0.35 | 0.397 | 0.437
x1 = 0.0994 | 0.564 | 0.672 | 0.775 | 0.859
x1 = 0.1508 | 0.812 | 0.929 | 1.07 | 1.203
x1 = 0.2004 | 0.993 | 1.121 | 1.294 | 1.451
x1 = 0.2497 | 1.156 | 1.29 | 1.491 | 1.676
x1 = 0.3009 | 1.274 | 1.427 | 1.644 | 1.832
x1 = 0.3502 | 1.369 | 1.529 | 1.761 | 1.969
x1 = 0.4003 | 1.45 | 1.609 | 1.849 | 2.064
x1 = 0.4508 | 1.492 | 1.669 | 1.917 | 2.126
x1 = 0.5011 | 1.524 | 1.695 | 1.937 | 2.145
x1 = 0.5506 | 1.527 | 1.695 | 1.93 | 2.139
x1 = 0.5986 | 1.511 | 1.674 | 1.9 | 2.088
x1 = 0.6502 | 1.469 | 1.611 | 1.825 | 1.998
x1 = 0.6996 | 1.391 | 1.522 | 1.716 | 1.872
x1 = 0.7525 | 1.279 | 1.389 | 1.561 | 1.674
x1 = 0.8021 | 1.135 | 1.228 | 1.36 | 1.446
x1 = 0.8473 | 0.949 | 1.038 | 1.126 | 1.204
x1 = 0.9034 | 0.686 | 0.719 | 0.795 | 0.812
x1 = 0.946 | 0.417 | 0.421 | 0.487 | 0.486

CCOC(=O)C(=O)OCC [diethyl ethanedioate] + CCCO
excess molar enthalpy [kJ/mol]
Conditions | 288.2 K | 298.2 K | 313.2 K | 328.2 K
x1 = 0.0505 | 0.445 | 0.471 | 0.514 | 0.563
x1 = 0.1001 | 0.781 | 0.845 | 0.971 | 1.04
x1 = 0.1509 | 1.056 | 1.154 | 1.319 | 1.429
x1 = 0.1998 | 1.269 | 1.387 | 1.58 | 1.723
x1 = 0.2491 | 1.429 | 1.588 | 1.811 | 1.956
x1 = 0.2986 | 1.571 | 1.723 | 1.965 | 2.153
x1 = 0.3478 | 1.672 | 1.858 | 2.11 | 2.308
x1 = 0.4003 | 1.754 | 1.948 | 2.211 | 2.392
x1 = 0.4482 | 1.8 | 1.987 | 2.252 | 2.451
x1 = 0.499 | 1.839 | 2.025 | 2.279 | 2.471
x1 = 0.5484 | 1.829 | 2.009 | 2.256 | 2.452
x1 = 0.6007 | 1.8 | 1.98 | 2.196 | 2.363
x1 = 0.6509 | 1.736 | 1.894 | 2.109 | 2.246
x1 = 0.6986 | 1.642 | 1.777 | 1.97 | 2.108
x1 = 0.7487 | 1.51 | 1.622 | 1.797 | 1.89
x1 = 0.8015 | 1.325 | 1.424 | 1.536 | 1.612
x1 = 0.8509 | 1.101 | 1.18 | 1.25 | 1.302
x1 = 0.9028 | 0.804 | 0.822 | 0.879 | 0.909
x1 = 0.9503 | 0.424 | 0.45 | 0.454 | 0.453
